Results on 16 compounds are retold here after patent publication US20220184008A1, “MODULATORS OF INTRACELLULAR CHLORIDE CONCENTRATION” (FONDAZIONE ISTITUTO ITALIANO DI TECNOLOGIA, priority 2019, published 2022).

Assay [1] deals with T1, NKCC1 (Homo sapiens, UniProt P55011).
T1 construct: expressed in transfected cells; host or cells: HEK293
T1 sequence (P55011 1-1212): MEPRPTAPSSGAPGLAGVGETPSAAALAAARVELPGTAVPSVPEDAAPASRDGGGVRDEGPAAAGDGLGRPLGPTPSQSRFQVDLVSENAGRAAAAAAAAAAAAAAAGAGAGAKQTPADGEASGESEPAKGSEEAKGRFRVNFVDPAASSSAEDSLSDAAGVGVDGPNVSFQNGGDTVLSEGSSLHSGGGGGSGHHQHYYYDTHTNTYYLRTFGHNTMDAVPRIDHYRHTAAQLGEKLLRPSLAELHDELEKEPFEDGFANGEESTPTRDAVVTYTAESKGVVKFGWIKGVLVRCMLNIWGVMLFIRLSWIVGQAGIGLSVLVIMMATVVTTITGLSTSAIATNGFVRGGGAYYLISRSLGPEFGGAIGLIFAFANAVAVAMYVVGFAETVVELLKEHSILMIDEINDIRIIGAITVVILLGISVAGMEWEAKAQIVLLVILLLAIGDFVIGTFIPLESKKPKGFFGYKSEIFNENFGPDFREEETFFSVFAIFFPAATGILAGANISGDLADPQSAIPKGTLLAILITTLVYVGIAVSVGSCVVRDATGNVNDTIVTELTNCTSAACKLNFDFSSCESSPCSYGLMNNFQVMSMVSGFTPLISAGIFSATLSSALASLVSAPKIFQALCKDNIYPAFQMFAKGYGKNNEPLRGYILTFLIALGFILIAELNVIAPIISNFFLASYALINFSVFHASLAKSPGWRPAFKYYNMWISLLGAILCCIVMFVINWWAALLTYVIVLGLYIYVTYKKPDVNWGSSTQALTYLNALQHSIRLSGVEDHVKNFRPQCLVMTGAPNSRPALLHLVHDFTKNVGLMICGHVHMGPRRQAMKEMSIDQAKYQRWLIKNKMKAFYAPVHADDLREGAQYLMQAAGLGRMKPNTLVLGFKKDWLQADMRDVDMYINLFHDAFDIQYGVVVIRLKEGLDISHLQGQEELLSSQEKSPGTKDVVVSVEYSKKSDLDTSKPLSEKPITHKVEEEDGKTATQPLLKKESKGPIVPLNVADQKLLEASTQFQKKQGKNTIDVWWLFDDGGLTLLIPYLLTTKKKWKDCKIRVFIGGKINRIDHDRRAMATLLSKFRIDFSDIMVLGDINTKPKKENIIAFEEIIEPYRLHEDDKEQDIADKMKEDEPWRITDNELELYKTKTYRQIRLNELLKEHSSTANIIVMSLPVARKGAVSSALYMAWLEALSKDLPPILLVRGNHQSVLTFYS
The assay is described as follows: Chloride kinetic assay (Cl-sensitive YFP) in NKCC1-transfected HEK293 cells. In kind it is cell-based. The following applies: 10 μM, NKCC1-transfected HEK293; for inhibition at 10 µM: read-out: NKCC1 Inhibition % 10 μM HEK Chloride YFP assay. The procedure: FIG. 1: In vitro testing of the NKCC1 inhibitors in the chloride kinetic assay a) Example traces obtained in the chloride kinetic assay on HEK cells transfected with the YFP (mock) or with YFP and NKCC1. The arrow indicates the addition of NaCl (final concentration 74 mM) used to initiate the flux assay. b) Quantification of the effect of bumetanide (10 μM and 100 μM) or furosemide (10 μM and 100 μM) in the chloride kinetic assay on mock or NKCC1-transfected HEK293 cells. Data represents mean±sem from 5 independent experiments. c) Quantification of the effect of bumetanide and furosemide and 2 selected compounds (3.8, 3.17) in the chloride kinetic assay on NKCC1-transfected HEK293 cells. Data represents mean±sem from 5 independent experiments, and they are represented as % of the controls. *P<0.05, **P<0.01, ***P<0.001 Kruskal-Wallis Anova (Dunn's Post hoc Test); ###P<0.001 two-tailed unpaired Student t-test.
To screen in vitro the compounds efficiency in blocking NKCC1, a functional NKCC1 transporter assay was performed by measuring variation of Cl^− ion concentration in the cell through a Cl^− sensitive membrane-tagged yellow fluorescent protein (mbYFPQS, Addgene). mbYFPQS fluorescence is inversely dependent on the concentration of Cl^− inside the cell thus allowing an indirect estimation of the Cl^− transporter activity. In particular, HEK293 cells were transfected with NKCC1 or mock construct (control) together with the Cl^− sensitive YFP. After 2 DIV, the cells were treated with bumetanide and furosemide (as positive controls) or with each of the tested compounds of the invention in a Cl^− free medium. After 30 min, the inhibitory activity of the compounds was tested by monitoring fluorescence upon application of NaCl (FIG. 1a). Transported by NKCC1, Cl binds the YFP, leading to a fluorescence decrease. […] With the Cl kinetic assay, the NKCC1 inhibitory activity of the selected compounds was tested (FIG. 1c).

The test system of assay [2] is NKCC1. The assay is described as follows: Calcium kinetic assay in primary cultures of immature hippocampal neurons. The format is cell-based. The following applies: 10 μM, immature neurons 3 DIV. The procedure: FIG. 2: In vitro testing of the NKCC1 inhibitors in a calcium kinetic assay. a) Example traces of fluorescence levels upon application of GABA (100 μM) and KCl (90 mM) used to trigger calcium influx in primary neuronal cultures treated after 3 days in culture (3 DIV) with vehicle, bumetanide, furosemide and compounds 3.8, 3.13 and 3.17 in the calcium kinetic assay. b) Quantification of the average fluorescence increase upon GABA application normalized to the increase upon KCl application in neurons treated with bumetanide, furosemide and 3 exemplary compounds (3.8, 3.13, 3.17) (10 μM, 100 μM). Data represents mean±sem from 5 independent experiments, and they are presented as % of the control. *P<0.05, **P<0.01, ***P<0.001 Kruskal-Wallis Anova (Dunn's Post hoc Test).
Next, the compounds of the invention were tested for their ability to revert the depolarizing GABAergic signaling in immature neurons. This effect was indirectly measured as calcium influx into the cells with an in vitro calcium kinetic assay in primary cultures of hippocampal neurons. The calcium kinetic assay exploits the physiological, endogenous, high expression of NKCC1 in immature neurons, which causes depolarizing actions of GABA and can activate voltage-gated Ca^2+ channels. Thus, in immature neurons, a compound that blocks NKCC1 is predicted to inhibit Ca^2+ responses upon GABA application. Immature neurons were cultured for 3 days in vitro (3 DIV) and loaded for 15 min with a calcium-sensitive dye (Fluo4). Then, the neurons were treated with bumetanide and furosemide (as positive controls) or with each of the selected compounds for 15 min. As a functional readout, the fluorescence level was monitored in these cultures before and after application of GABA (100 μM, for 20 sec). To test for neuronal viability at the end of the experiment, KCl was applied (90 mM, for 40 sec), which strongly depolarizes neurons, causing high activation of voltage-gated Ca^2+ channels in live cells. To quantify how bumetanide, furosemide, and selected compounds influenced NKCC1 inhibition, the fluorescence values were normalized upon GABA application to the fluorescence levels upon KCl application in treated neurons.

Turning to `CNS(=O)(=O)c1cc(C(=O)O)ccc1NCCCCCCCC(F)(F)F` [Compound 3.10, 3-(methylsulfamoyl)-4-(8,8,8-trifluorooctylamino)benzoic acid], the “NKCC1 Inhibition % 10 μM HEK Chloride YFP assay” value in assay [1] (Table 1) and in assay [1] (Table 2) was “Inactive” in each case. Moreover, the “NKCC1 Inhibition % 10 μM Neurons Calcium kinetic assay” value in assay [2] (Table 1) and in assay [2] (Table 2) was 14% in each case.
Usually inhibition stands for the share of the control response that was lost under treatment. Regarding `CN(C)S(=O)(=O)c1cc(C(=O)O)ccc1NCCCC(F)(F)F` [Compound 3.15, 3-(dimethylsulfamoyl)-4-(4,4,4 trifluorobutylamino) benzoic acid], the inhibition at 10 µM in assay [1] (Table 1) worked out at 11%. Moreover, the “NKCC1 Inhibition % 10 μM Neurons Calcium kinetic assay” value in assay [2] (Table 1) and in assay [2] (Table 2) was “Inactive” each time.
As for `CN(C)S(=O)(=O)c1cc(C(=O)O)ccc1NCCCCCC(F)(F)F` [Compound 3.16, 3-(dimethylsulfamoyl)-4-(6,6,6-trifluorohexylamino) benzoic acid], the inhibition at 10 µM in assay [1] (Table 1) amounted to 17%. Also, the “NKCC1 Inhibition % 10 μM Neurons Calcium kinetic assay” value in assay [2] (Table 1) and in assay [2] (Table 2) was “Inactive” throughout.
In the case of `COCCNc1ccc(C(=O)O)cc1S(=O)(=O)N(C)C` [Compound 3.18, 3-(dimethylsulfamoyl)-4-(2-methoxyethylamino)benzoic acid], the inhibition at 10 µM in assay [1] (Table 1) was 13%. The “NKCC1 Inhibition % 10 μM Neurons Calcium kinetic assay” value in assay [2] (Table 1) and in assay [2] (Table 2) was “Inactive” in each case.
In the case of `COCCCCNc1ccc(C(=O)O)cc1S(=O)(=O)N(C)C` [Compound 3.19, 3-(dimethylsulfamoyl)-4-(4-methoxybutylamino)benzoic acid], in assay [1] (Table 1), the inhibition at 10 µM is 6%. The “NKCC1 Inhibition % 10 μM Neurons Calcium kinetic assay” value in assay [2] (Table 1) and in assay [2] (Table 2) was “Inactive” in each case.
Take `COCCCCCCNc1ccc(C(=O)O)cc1S(=O)(=O)N(C)C` [Compound 3.20, 3-(dimethylsulfamoyl)-4-(6-methoxyhexylamino)benzoic acid]: the “NKCC1 Inhibition % 10 μM HEK Chloride YFP assay” value in assay [1] (Table 1) and in assay [1] (Table 2) was “Inactive” each time. For the same compound, the “NKCC1 Inhibition % 10 μM Neurons Calcium kinetic assay” value in assay [2] (Table 1) and in assay [2] (Table 2) was 20% throughout.
On to `O=C(O)c1ccc(NCCCCCCCC(F)(F)F)c(S(=O)(=O)NC2CCCC2)c1` [Compound 3.21, 3-(cyclopentylsulfamoyl)-4-(8,8,8-trifluorooctylamino) benzoic acid], for which the inhibition at 10 µM in assay [1] (Table 1) was determined as 18%. The “NKCC1 Inhibition % 10 μM Neurons Calcium kinetic assay” value in assay [2] (Table 1) and in assay [2] (Table 2) was 51% in each case.
On to `O=C(O)c1ccc(NCCCCCCCC(F)(F)F)c(S(=O)(=O)NC2CCCCC2)c1` [Compound 3.22, 3-(cyclohexylsulfamoyl)-4-(8,8,8-trifluorooctylamino) benzoic acid], for which the inhibition at 10 µM in assay [1] (Table 1) was 4%. In addition, the “NKCC1 Inhibition % 10 μM Neurons Calcium kinetic assay” value in assay [2] (Table 1) and in assay [2] (Table 2) was 54% each time.
Take `O=C(O)c1ccc(NCCCCCCCC(F)(F)F)c(S(=O)(=O)N2CCCC2)c1` [Compound 5.5, 3-pyrrolidin-1-ylsulfonyl-4-(8,8,8-trifluorooctylamino) benzoic acid]: in assay [1] (Table 1), the inhibition at 10 µM was found to be 2%. The “NKCC1 Inhibition % 10 μM Neurons Calcium kinetic assay” value in assay [2] (Table 1) and in assay [2] (Table 2) was 39% each time.
Turning to `CN(C)S(=O)(=O)c1cc(C#N)ccc1NCCCCCCCC(F)(F)F` [Compound 6.3, 5-cyano-N,N-dimethyl-2-(8,8,8-trifluorooctylamino) benzenesulfonamide], the inhibition at 10 µM in assay [1] (Table 1) was found to be 20%.
For the compound `CN(C)S(=O)(=O)c1cc(C(=O)O)ccc1N1CCN(CCCCC(F)(F)F)CC1` [Compound 9.1, 3-(dimethylsulfamoyl)-4-[4-(5,5,5 trifluoropentyl)piperazin-1-yl] benzoic acid], the inhibition at 10 µM in assay [1] (Table 1) came out at 3%.
In the case of `CCOc1cc(NCCCCCCCC(F)(F)F)c(S(=O)(=O)N(C)C)cc1C(=O)O` [Compound 12.9], the “NKCC1 Inhibition % 10 μM Neurons Calcium kinetic assay” value in assay [2] (Table 1) came to 12.2%.
Turning to `CN(C)S(=O)(=O)c1cc(C(=O)O)c(OC2CCCC2)cc1NCCCCCCCC(F)(F)F` [Compound 12.10], the “NKCC1 Inhibition % 10 μM Neurons Calcium kinetic assay” value in assay [2] (Table 1) came to 26.6%.
On the same count and under the same terms, next, `COc1cc(NCCCCCCCC(F)(F)F)c(S(=O)(=O)N(C)C)cc1C(=O)O` [Compound 13.1, 5-(N,N-dimethylsulfamoyl)-2-methoxy-4-((8,8,8-trifluorooctyl)amino)benzoic acid]: 14.2%; `O=C(O)c1ccc(NCCCCCCCC(F)(F)F)c(S(=O)(=O)N2CCOCC2)c1` [Compound 14.3, 3-morpholinosulfonyl-4-((8,8,8-trifluorooctyl)amino)benzoic acid]: 7.1%.
`O=C(O)c1ccc(NCCCCCCCC(F)(F)F)c(S(=O)(=O)N2CCC(F)(F)CC2)c1` [Compound 14.4, 3-((4,4-difluoropiperidin-1-yl)sulfonyl)-4-((8,8,8-trifluorooctyl)amino)benzoic acid]: the “NKCC1 Inhibition % 10 μM Neurons Calcium kinetic assay” value in assay [2] (Table 1) stood at 48.0%.
